Four compounds from patent publication US11396517B1, “Exo-aza spiro inhibitors of menin-MLL interaction” (Janssen Pharmaceutica NV, priority 2017, dated 2022) can be followed below.

One test addresses T1, menin (Homo sapiens, UniProt O00255, T541A).
T1 construct: Menin (a.a. 1-610-6×his tag)
T1 sequence (O00255 with tags, fused parts or gaps T541A): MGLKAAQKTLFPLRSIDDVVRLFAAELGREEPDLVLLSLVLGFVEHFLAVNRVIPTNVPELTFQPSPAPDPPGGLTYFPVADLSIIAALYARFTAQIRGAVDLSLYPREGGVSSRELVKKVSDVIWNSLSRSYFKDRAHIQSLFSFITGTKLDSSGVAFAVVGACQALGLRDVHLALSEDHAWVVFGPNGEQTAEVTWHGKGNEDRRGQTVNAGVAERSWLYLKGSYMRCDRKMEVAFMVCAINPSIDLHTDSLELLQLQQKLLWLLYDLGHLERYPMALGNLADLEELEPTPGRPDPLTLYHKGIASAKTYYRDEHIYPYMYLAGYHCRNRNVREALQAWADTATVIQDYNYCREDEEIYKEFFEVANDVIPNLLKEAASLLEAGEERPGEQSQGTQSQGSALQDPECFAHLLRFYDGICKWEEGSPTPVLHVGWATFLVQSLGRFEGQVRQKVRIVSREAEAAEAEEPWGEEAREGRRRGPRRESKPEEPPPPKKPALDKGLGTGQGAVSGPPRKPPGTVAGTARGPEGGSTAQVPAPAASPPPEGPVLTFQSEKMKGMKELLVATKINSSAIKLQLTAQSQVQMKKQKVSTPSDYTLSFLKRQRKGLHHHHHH
Put plainly: Menin/MLL homogenous time-resolved fluorescence (HTRF) assay. The test is classed as binding. The following applies: location 2; read-out: (2) location 2 Menin HTRF assay (IC50 (nM)). In outline: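 Displacement of 75 nM FITC-MBM1 from terbium-cryptate-labeled His-tagged menin 1-610 ([…]) was read as the 520/490 nm HTRF ratio. Compound (11-point, 3-fold series) got 5 min with menin before peptide, then 15 min at ambient; 0.5% DMSO, Tris pH 7.5.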
A general note: In TR-FRET formats the signal depends on donor and acceptor labels being close together.

The test system of a further test is K562. Put plainly: Proliferation assay B (spheroid assay) K562 control cell line. It is filed as cell-based. The following applies: Homo sapiens, 192 h; K562 cells (MLL wildtype control), confluence at day 8; read-out: (3b) Spheroid assay K562 Assay B. On the procedure: 3b) Proliferation Assay B
The anti-proliferative effect of menin/MLL protein/protein interaction inhibitor test compounds was assessed in human leukemia cell lines. The cell lines MV-4-11 and MOLM14 harbor MILL translocations and express the MILL fusion proteins MLL-AF4 and MLL-AF9, respectively, as well as the wildtype protein from the second allele. […] K562 was used as a control cell line containing two MLL wildtype alleles in order to exclude compounds that display general cytotoxic effects.
MV-4-11 and MOLM14 were cultured in RPMI-1640 (Sigma Aldrich) supplemented with 10% fetal bovine serum (HyClone), 2 mM L-glutamine (Sigma Aldrich) and 50 μg/ml gentamycin (Gibco). K562 were propagated in RPMI-1640 (Sigma Aldrich) supplemented with 20% fetal bovine serum (HyClone), 2 mM L-glutamine (Sigma Aldrich) and 50 μg/ml gentamycin (Gibco).
In order to assess the anti-proliferative effects, 1,500 MV-4-11, 300 MOLM14 cells or 750 K562 cells were seeded in 200 μl media per well in 96-well round bottom, ultra-low attachment plates (Costar, catalogue number 7007). Cell seeding numbers were chosen based on growth curves to ensure linear growth throughout the experiment. Test compounds were added at different concentrations and the DMSO content was normalized to 0.3%. Cells were incubated for 8 d at 37° C. and 5% CO2. Spheroid like growth was measured in real-time by live-cell imaging (IncuCyteZOOM, Essenbio, 4× objective) acquiring images at day 8. Confluence (%) as a measure of spheroid size was determined using an integrated analysis tool.
In order to determine the effect of the test compounds over time, the confluence in each well as a measure of spheroid size, was calculated. Confluence […] at the beginning of the experiment (t=0) was used as baseline for the calculation.
Absolute IC50 values were calculated as percent change in confluence as follows:
LC=Low Control: cells treated with 1 μM of the cytotoxic agent staurosporin
HC=High Control: Mean confluence (%) (DMSO treated cells) % Effect=100−(100*(Sample−LC)/(HC−LC))
To determine the IC50 a curve is fitted to the plot of % Effect vs Log 10 compound concentration using a sigmoidal fit with a variable slope and fixing the maximum to 100% and the minimum to 0%.

pIC50: −log10 of the molar value.

Usually IC50 stands for the midpoint of a concentration-inhibition curve. On to `FC(F)(F)Cc1cc2c(N3CCC4(CC(Nc5ccc6cc[nH]c6c5)C4)C3)ncnc2s1` (mixture of isomers) [Compound 311], for which, on menin, the IC50 stood at 70.5 nM.
For the compound `O=c1[nH]c2cc(CNC3CCC4(C3)CN(c3ncnc5sc(CC(F)(F)F)cc35)C4)ccc2o1` (single isomer, unassigned) [Compound 58], the pIC50 in the test with K562 was 4.85. The IC50 on menin was determined as 2.9 nM.
As to `Cn1c(=O)[nH]c2cc(CNC3CCC4(C3)CN(c3ncnc5sc(CC(F)(F)F)cc35)C4)ccc21` (centres unmarked) [Compound 54], the IC50 on menin amounted to 1.8 nM.
The same measure, in the same setting: next, `CNC(=O)c1ccc(NC2CC3(CCN(c4ncnc5sc(CC(F)(F)F)cc45)C3)C2)cc1` (centres unmarked) [Compound 93]: 5.8 nM.
